In US6395281B1, “Cosmetic skin conditioning compositions containing red yeast rice extract” (Unilever Home & Personal Care USA, a division of Conopco, …, priority 1999, dated 2002):

Experiments:
[1] = test system: human sebocytes; test: Sebum secretion by sebocytes (14C-acetate incorporation); assay type: cell-based; conditions: 0.001%
Protocol: This example investigated the effect of red yeast rice on sebum secretion by sebocytes. Secondary cultures of human sebocytes obtained from an adult […] were grown in 48-well tissue culture plates (Costar Corp.; Cambridge, Mass.) until confluent. Sebocyte growth medium consisted of Clonetics Keratinocyte Basal Medium (KBM) supplemented with 14 μg/ml bovine pituitary extract, 0.4 μg/ml hydrocortisone, 5 μg/ml insulin, 10 ng/ml epidermal growth factor, 1.2×10−10 M cholera toxin, 100 units/ml penicillin, and 100 μg/ml streptomycin. All cultures were incubated at 37° C. in the presence of 7.5% CO2. Medium was changed three times per week. On the day of experimentation, the growth medium was removed and the sebocytes washed three times with sterile Dulbecco's Modified Eagle Medium (DMEM; phenol red free). Fresh DMEM was added to each sample (triplicates in Table 4 and duplicated in Table 5) with 5 microliter of test agent solubilized in ethanol. Controls consisted of addition of ethanol alone. Each plate was returned to the incubator for 20 hours followed by the addition of 14C-acetate buffer (5 mM final concentration, 56 mCi/mmol specific activity). […] Radioactive label remaining in the sebocytes was harvested and counted using a Beckman scintillation counter. […]

[2] = test system: Cellular Retinoic Acid Binding Protein 2 (CRABP-2) in human adult fibroblasts; test: CRABP-2 production by fibroblasts (Western blot); assay type: cell-based; conditions: 10e-6M retinoid alone, 48 hours
Protocol: This example investigated the effect of various tested compounds on CRABP-2 production by fibroblasts.
Human adult fibroblasts obtained from su n-protected inner arm of 25-30 year […] volunteer were used in this. Cells were grown in 1:1 DMEM/Hams F12 media containing 10% FBS, maintained at 37° C. in a 5% CO2 atmosphere under normal atmospheric oxygen tension. Third passage adult fibroblasts were grown in DMEM media with 10% FBS in 12-well plates at a seeding density of 2500 cells/ml/well. The cells at 80% confluence were rinsed in serum free and phenol red free (PRF) DMEM media twice. Pre-treatment with test compound for 4 hours was conducted and then dosed with retinoids and was incubated for 48 hours.
After the incubation, the wells were was ed twice with 1X PBS and the cell monolayer was harvested in 100 μl cell lysis buffer (contains 1X PBS, 1% TritonX, 0.5% sodium deoxycholate, 0.1% SDS containing p tease inhibitor (10 mg/ml PMSF in isopropanol, 10 μl/ml). The suspension was spun at 14000 rpm for 10 minutes, the supernatant collected and an aliquot of this supematant was used for protein quantification. Protein concentration was determined using Pierce protein kit. The remainder of 100 μl supernatant (cell lysate) was denatured in a mixture of 40 μl sample buffer (NOVEX) and 0.5% Beta mercaptoethanol (IBME) and by boiling the sample for 5 minutes. Equal amount of protein was then loaded onto 16% Tris-glycine gels for protein analysis by SDS page and Western Immuno-blotting for CRABP-2 protein expression.
The gels were run and transferred to nitrocellulose blots and Western Blotting was carried out using monoclonal antibodies to CRABP-2 according to standard procedures. The CRABP-2 protein band was visualized in the Western Blots using the chemiluminescence system obtained from Santa Cruz Biotechnology (SantaCruz, Calif.). The bands in the film were quantitated by densitometric scanning, the-data from triplicate samples were calculated as % of control and expressed in the following tables as % increase over control (with control as 100%) +/−SD of triplicates.

[3] = test system: Neonatal human dermal fibroblasts; test: Procollagen I production by fibroblasts (dot blot); assay type: cell-based; conditions: 50 μg; for Procollagen 1 production: densitometer reading
Protocol: This example measured production of procollagen I by fibroblasts in response to treatment with various test compounds.
Methodology for determination of (Pro) Collagen-I protein expression using Dot Blot technique:
Neonatal human dermal fibroblasts (passage 4 to 8) were purchased from Clonetics Corp. San Diego, Calif. All materials for cell culture were purchased from Life technologies, New York and used in passages 5-10. Cells were seeded at a density of approximately 7,500/well in the inner 48 wells of a 96-well plate in DMEM (Dulbecco's Modified Eagle's Medium), high glucose supplemented with 2 mM L-glutamine, 10% fetal bovine serum, and antibiotic and. antimycotic solutions. Cells were grown to confluence and washed with serum free, phenol red free DMEM and cells dosed with 200 μl actives in media. Each dosing was replicated in a total of six to twelve wells. After 24 hours, the test compound solution or the control solution was removed and cells re-dosed with 100 μl actives in media. After 24 hours incubation, remove media and store at 4° C. with protease inhibitor (Aprotinin 1:200) until further use. The test compound solution was then diluted in 1X Tris buffered saline (pH=8) buffer (approximately 20 μl media in 200 μl buffer).
PVDF membrane soaked in methanol and 2 filter papers in 1X TBS (pH=8). Bio-Rad dot blot apparatus was set up with filter paper on bottom, membrane on top, tighten, added 100 μl TBS per well. Vacuum dry. Vortex or mix, then load 100 μl diluted sample per well; let it sit for 15 minutes and then vacuum dry. Remove membrane from the apparatus, cut off excess, and notch bottom right comer for orientation. Place membrane in blocking buffer (5% milk powder in 1X TBS-Tween) for 1 hour at room temperature with shaking. […] Remove membrane, do a 10 minute wash three to five times in TBS/0.1% Tween. Incubate for 1 hour at RT or O/N at 4° C. in 5 ml 1:1000 anti-rat conjugated alkaline phosphatase (AP) secondary antibody in 1-% milk in TBS-T in a sealed bag with shaking. Wash membrane for 15 minutes five to eight times with TBS-T, and final rinse with 1X PBS. The membrane was developed using Chemiluminiscent substrate (Boehringer Mannheim, Ind.) and results were analysed using a laser densitometer (Bio-Rad instrument). Fold increase was calculated as a ratio of densitometer reading for cells treated with a test compound over control.

[4] = test system: ZR75 cells; test: Assay for estrogen like activity: [methyl-3H] thymidine incorporation in ZR75 cells; assay type: cell-based, human; conditions: 0.27 × 10^−6% (10 nM)
From the text: The ZR75 cell line is a ductal breast carcinoma cell line, originally isolated from malignant mammary epithelium of a person (10). The chromosome number is triploid and the trypsin-Giemsa banding patterns indicate a unique karyotype distinct from HeLa cells. While containing receptors for estrogen, insulin, progesterone and other hormones, ZR75 cells only respond through an increase in proliferation to estrogen and insulin. The cell line contains high affinity estrogen-specific receptors. Therefore, this cell line is used for testing estrogen-like activity.
The cells are split 1:2 once every week and seeded in 24 well plates at one hundred thousand cells per milliliter per well for the assay.
After growing for twenty-four hours, the media was removed, the cells were washed with PBS and one ml of RPMI 1640 without serum was readded. Different dilutions of the red yeast rice extract were then dosed directly into each well. After another twenty-four hours, one microCurie of [methyl-3H] thymidine was added to the media in each well. The media was removed after twenty-four hours to begin the thymidine uptake assay. […] The samples were transferred to scintillation vials and after adding five milliliters of counting fluid (scintiverse), the vials were counted for five minutes each on a setting for tritium. […] Data was calculated as % of control to normalize for experiment-to-experiment variation.

| Compound | CRABP-2 % of Control [2] | CRABP-2 OD +/− SD [2] | Procollagen 1 production % of Control [3] | Procollagen 1 production [3] | further results |
| --- | --- | --- | --- | --- | --- |
| O=S1(=O)OC(c2ccc(O)cc2)(c2ccc(O)cc2)c2ccccc21 [Phenol Red] | – | – | – | – | % Reduction (sebum, 14C-acetate label) ([1]; first Table 4 (triplicates)): 83.4%; % Reduction (sebum, 14C-acetate label) ([1]; second table, printed as Table 4 (Table 5, duplicates)): 83.4% |
| CC1=C(/C=C/C(C)=C/C=C/C(C)=C/CO)C(C)(C)CCC1 [Retinol] | 153 +/− 5% | 1.91 +/− 0.06 OD | – | – | – |
| CCCCCCCCCCCCCCCC(=O)OC[C@H](O)[C@H]1OC(=O)C(O)=C1O [Ascorbyl Palmitate, ascorbyl palmitate] | – | – | 103 +/− 48% | 0.775 +/− 0.36 | – |
| CCCCC/C=C\C/C=C\CCCCCCCC(=O)OC/C=C(C)/C=C/C=C(C)/C=C/C1=C(C)CCCC1(C)C [Retinyl linoleate] | 156 +/− 13% | 1.96 +/− 0.16 OD | – | – | – |
| O=C1O[C@H]([C@@H](O)CO)C([O-])=C1OP(=O)([O-])[O-].[Na+].[Na+].[Na+] [Sodium ascorbyl phosphate, sodium ascorbyl phosphate] | – | – | 116 +/− 27% | 0.871 +/− 0.2 | – |
| O=C1O[C@H]([C@@H](O)CO)C(O)=C1O [Vitamin C] | – | – | 175 +/− 37% | 1.311 +/− 0.28 | – |
| CC(=O)OC/C=C(C)/C=C/C=C(C)/C=C/C1=C(C)CCCC1(C)C [Retinyl Acetate] | 398 +/− 157% | 3.86 +/− 0.28 OD | – | – | – |
| C[C@]12CC[C@@H]3c4ccc(O)cc4CC[C@H]3[C@@H]1CC[C@@H]2O [Estradol, estradiol] | – | – | – | – | cpm +/− SD (thymidine incorporation) [4]: 263982 +/− 711 cpm; activity at 0.01 µM ([4]; Homo sapiens, ZR75, read-out: thymidine incorporation % of control): 224% |
| CCCCCCCCCCCCCCCC(=O)OC/C=C(C)/C=C/C=C(C)/C=C/C1=C(C)CCCC1(C)C [Retinyl palmitate] | 178 +/− 33% | 2.00 +/− 0.04 OD | – | – | – |
